Laboratory results as given in ChEMBL document CHEMBL3779859, “Synergistic activity of a short lipidated antimicrobial peptide (lipoAMP) and colistin or tobramycin against Pseudomonas aeruginosa from cystic fibrosis patients” (Medchemcomm, 2016).
Values after ≈ are worked out from the molar mass of the structure shown. Peptide text beside a SMILES is read from it. * marks the point of attachment. DEAC = CCN(CC)c1ccc2cc(C(=O)*)c(=O)oc2c1; Myristoyl = CCCCCCCCCCCCCC(=O)*; Lauroyl = CCCCCCCCCCCC(=O)*; Decanoyl = CCCCCCCCCC(=O)*; Octanoyl = CCCCCCCC(=O)*; Hexanoyl = CCCCCC(=O)*

Columns and labels:
Type in all cases: functional
[1] = test system: Pseudomonas aeruginosa; test: Antibacterial activity against Pseudomonas aeruginosa VW1633 clinical isolate after 16 to 20 hrs by microdilution assay
[2] = test system: Pseudomonas aeruginosa; test: Antibacterial activity against Pseudomonas aeruginosa KD491 clinical isolate after 16 to 20 hrs by microdilution assay
[3] = test system: Pseudomonas aeruginosa; test: Antibacterial activity against Pseudomonas aeruginosa LES431 clinical isolate after 16 to 20 hrs by microdilution assay

MIC [1] [µg/mL]	MIC [2] [µg/mL]	MIC [3] [µg/mL]	SMILES
16 (≈ 12.6 µM)	32 (≈ 25.2 µM)	> 128	CCCCCC(=O)NCCCC[C@H](NC(=O)[C@H](Cc1c[nH]c2ccccc12)NC(=O)[C@H](CCCNC(=N)N)NC(=O)[C@H](Cc1c[nH]c2ccccc12)NC(=O)[C@H](CCCNC(=N)N)NC(=O)[C@H](Cc1c[nH]c2ccccc12)NC(=O)[C@@H](N)CCCNC(=N)N)C(=O)O (H-RWRWRWK(Hexanoyl)-OH)
32 (≈ 23.6 µM)	> 128	64 (≈ 47.2 µM)	CCCCCCCCCCCC(=O)NCCCC[C@H](NC(=O)[C@H](Cc1c[nH]c2ccccc12)NC(=O)[C@H](CCCNC(=N)N)NC(=O)[C@H](Cc1c[nH]c2ccccc12)NC(=O)[C@H](CCCNC(=N)N)NC(=O)[C@H](Cc1c[nH]c2ccccc12)NC(=O)[C@@H](N)CCCNC(=N)N)C(=O)O (H-RWRWRWK(Lauroyl)-OH)
16 (≈ 12.3 µM)	16 (≈ 12.3 µM)	128 (≈ 98.5 µM)	CCCCCCCC(=O)NCCCC[C@H](NC(=O)[C@H](Cc1c[nH]c2ccccc12)NC(=O)[C@H](CCCNC(=N)N)NC(=O)[C@H](Cc1c[nH]c2ccccc12)NC(=O)[C@H](CCCNC(=N)N)NC(=O)[C@H](Cc1c[nH]c2ccccc12)NC(=O)[C@@H](N)CCCNC(=N)N)C(=O)O (H-RWRWRWK(Octanoyl)-OH)

Continued, compound first:

SMILES	MIC [1] [µg/mL]	MIC [2] [µg/mL]	MIC [3] [µg/mL]
CCCCCCCCCC(=O)N[C@@H](CCCNC(=N)N)C(=O)N[C@@H](Cc1c[nH]c2ccccc12)C(=O)N[C@@H](CCCNC(=N)N)C(=O)N[C@@H](Cc1c[nH]c2ccccc12)C(=O)N[C@@H](CCCNC(=N)N)C(=O)N[C@@H](Cc1c[nH]c2ccccc12)C(=O)N[C@@H](CCCCN)C(=O)O (Decanoyl-RWRWRWK-OH)	64 (≈ 48.2 µM)	32 (≈ 24.1 µM)	32 (≈ 24.1 µM)
CCN(CC)c1ccc2cc(C(=O)NCCCC[C@H](NC(=O)[C@H](Cc3c[nH]c4ccccc34)NC(=O)[C@H](CCCNC(=N)N)NC(=O)[C@H](Cc3c[nH]c4ccccc34)NC(=O)[C@H](CCCNC(=N)N)NC(=O)[C@H](Cc3c[nH]c4ccccc34)NC(=O)[C@@H](N)CCCNC(=N)N)C(=O)O)c(=O)oc2c1 (H-RWRWRWK(DEAC)-OH)	64 (≈ 45.2 µM)	64 (≈ 45.2 µM)	> 128
CCCCCCCCCCCCCC(=O)NCCCC[C@H](NC(=O)[C@H](Cc1c[nH]c2ccccc12)NC(=O)[C@H](CCCNC(=N)N)NC(=O)[C@H](Cc1c[nH]c2ccccc12)NC(=O)[C@H](CCCNC(=N)N)NC(=O)[C@H](Cc1c[nH]c2ccccc12)NC(=O)[C@@H](N)CCCNC(=N)N)C(=O)O (H-RWRWRWK(Myristoyl)-OH)	> 128	> 128	128 (≈ 92.5 µM)
CCCCCC(=O)N[C@@H](CCCNC(=N)N)C(=O)N[C@@H](Cc1c[nH]c2ccccc12)C(=O)N[C@@H](CCCNC(=N)N)C(=O)N[C@@H](Cc1c[nH]c2ccccc12)C(=O)N[C@@H](CCCNC(=N)N)C(=O)N[C@@H](Cc1c[nH]c2ccccc12)C(=O)N[C@@H](CCCCN)C(=O)O (Hexanoyl-RWRWRWK-OH)	32 (≈ 25.2 µM)	64 (≈ 50.3 µM)	> 128
